Experimental data as given in patent US20050192279A1, “Pyridazinones as antagonists of alpha4 integrins” (priority 2004, published 2005).

System: TNBS induced colitis
Assay: Trinitrobenzenesulfonic acid (TNBS) Induced Colitis, mice
Assay type: in vivo, Balb/c female mice
Settings: mouse
Source text: In Vivo Model: Trinitrobenzenesulfonic acid (TNBS) Induced Colitis
The TNBS model of experimental colitis (Bobin-Dubigeon, C., Collin, X., Grimaud, N., Robert, J-M., Guillaume Le Baut, G., and Petit, J-Y. Effects of tumour necrosis factor-a synthesis inhibitors on rat trinitrobenzene sulphonic acid-induced chronic colitis. Eur. J. Pharmacology, 431: 103-110, 2001), is characterized by shrinkage of the colon, intraperitoneal serosal adhesions, severe wounding and inflammatory damage, diarrhea, a continuous pattern of mucosal epithelial damage in the distal colon with infiltration of inflammatory cells. These symptomatic signs in the above—mentioned models are similar to what occur in human colitis.
Male Wistar rats (200-250 g) are inoculated with 500 microliters of a solution of 10 to 20 mg of TNBS in 30% ethanol delivered intracolonically via catheter or ball-tipped gavage needle to the 8th cm from the anus. When Balb/c female mice (8-12 weeks of age) were used, the inoculation volume was 50 microliters containing 2-3 mg of TNBS in 30% ethanol delivered intracolonically via catheter or ball-tipped gavage needle to the 4th cm from the anus. During the ensuing 7 days, test animals were administered a preparation of an experimental compound. This material may be administered orally, subcutaenously or intraperitoneally, once or twice daily. […] Among the parameters analyzed were the length of the colon starting from the anus to the top of the cecum, the weight of the colon, the consistency of any stools found within the colon, the presence or absence of intraperitoneal adhesions on the serosal surfacr of the intestin, and the gross macroscopic appearance of the colon. The latter is scored for length and severity of inlfammatory damage using a 10 point score. […]
Histological analyses of tissues consisted of staining paraffin-embedded tissue sections with hematoxylin-eosin dye. Epithelial damage scores were determined as the fraction of the tissue section showing damaged epithelium. Scores were determined as follows: 0=no damage; 1=<⅓ damaged, 2=⅓ to <⅔ damaged, 3=>⅔ damaged. […]

## COc1cnn(C)c(=O)c1-c1ccc(C[C@H](NC(=O)c2c(Cl)cccc2Cl)C(=O)O)cc1 [Cpd 17]
10 mg/kg sc bid
  % Inhibition of Total Macroscopic Score: 21.30%
30 mg/kg sc bid
  % Inhibition of Total Macroscopic Score: 25.5%
60 mg/kg sc bid
  % Inhibition of Total Macroscopic Score: −17%
